System: A549 cells co-cultured with CAFs
Assay: Co-culture system of cancer cells and CAFs (mRNA of the A549 cells)
Format: cell-based, human
Settings: each test substance 1 μM
Method: In a 6-well dish, the A549 cells were cultured at 1×10^5 cells/well. The culture medium was replaced with DMEM culture medium free from FBS the next day, and the cells were further cultured for 24 hours. In a 6-well dish having a cell culture insert (1.0 μm pore size, made by BD), the CAFs were cultured at 5×10^4 cells/well. The culture medium was replaced with DMEM culture medium containing 1% FBS the next day, and the cells were further cultured for 24 hours. To each culture medium of the two kinds of cells, test substances were separately added to prepare test substance addition groups. Control groups with no test substance were also prepared. After two hours of culture, these were subjected to co-culture. The test substance addition groups were ANP groups containing hANP at a final concentration of 1 μM, CNP groups containing hCNP-22 at a final concentration of 1 μM, and ANP+CNP groups containing both hANP and hCNP-22 each at a final concentration of 1 μM. Each of the groups were prepared by adding the test substance to each culture medium of the two kinds of cells.
On the 6-well dish of A549 cells treated as above, the above cell culture insert with the CAFs was placed to prepare a co-culture experimental model where only the culture media could pass through the cell culture insert. After 24, 48, and 72 hours of culture, total RNA of the A549 cells only was recovered, cDNA was synthesized, and the mRNA levels of E-cadherin, N-cadherin, VEGF-A, PDGF-B, and IL-6 were measured by quantitative RT-PCR (FIGS. 6 to 8). The experiment using ANP alone (ANP groups: FIG. 6), the experiment using CNP alone (CNP groups: FIG. 7), and the experiment using ANP and CNP in combination (ANP+CNP group: FIG. 8) were independently conducted, where control groups were separately set for each experiment.

CC[C@H](C)[C@@H]1NC(=O)[C@H](CCCNC(=N)N)NC(=O)[C@H](CC(=O)O)NC(=O)[C@H](CCSC)NC(=O)[C@H](CCCNC(=N)N)NC(=O)CNC(=O)CNC(=O)[C@H](Cc2ccccc2)NC(=O)[C@@H](NC(=O)[C@H](CO)NC(=O)[C@H](CO)NC(=O)[C@H](CCCNC(=N)N)NC(=O)[C@H](CCCNC(=N)N)NC(=O)[C@H](CC(C)C)NC(=O)[C@@H](N)CO)CSSC[C@@H](C(=O)N[C@@H](CC(N)=O)C(=O)N[C@@H](CO)C(=O)N[C@@H](Cc2ccccc2)C(=O)N[C@@H](CCCNC(=N)N)C(=O)N[C@@H](Cc2ccc(O)cc2)C(=O)O)NC(=O)CNC(=O)[C@H](CC(C)C)NC(=O)CNC(=O)[C@H](CO)NC(=O)[C@H](CCC(N)=O)NC(=O)[C@H](C)NC(=O)CNC1=O [hANP]
gene expression of the growth factors (VEGF-A, PDGF-B) and inflammatory cytokine (IL-6) increased in the co-culture (A549 cells co-cultured with CAFs 24, 48, 72 hours, FIGS. 6 to 8): could not suppress | expression ratio of N-cadherin/E-cadherin (N-cad/E-cad), indicator of EMT, in the co-culture (A549 cells co-cultured with CAFs, FIGS. 6D, 7D, 8D): did not show any effect
